Measured values taken from patent US9505727B2 (THE JOHNS HOPKINS UNIVERSITY, priority 2013, dated 2016).

Assays:
hNav1.6 = target: T1, hNav1.6 (Homo sapiens, UniProt Q9UQD0); assay: Two-electrode voltage-clamp of hNav1.6 (+β1) in Xenopus oocytes; type: cell-based; conditions: for Inactivation (V1/2) hNav1.6 / Activation (V1/2) hNav1.6: 100 μM drug; for Inactivation (V1/2) hNav1.6: steady-state inactivation; for Activation (V1/2) hNav1.6: ≤1% DMSO
T1 construct: host or cells: Xenopus oocytes (cRNA injection)

hNav1.1 = target: T2, hNav1.1 (Homo sapiens, UniProt P35498); assay: Two-electrode voltage-clamp of hNav1.1 (+β1) in Xenopus oocytes; type: cell-based; conditions: for Effect on hNav1.1 opening (G/Gmax), in words / Effect on hNav1.1 steady-state inactivation, in words / Effect on hNav1.1 persistent current / Depolarizing shift in hNav1.1 channel activation voltage: 100 μM; for Effect on hNav1.1 opening (G/Gmax), in words / Depolarizing shift in hNav1.1 channel activation voltage: versus DMSO; for Inactivation (V1/2) hNav1.1 / Activation (V1/2) hNav1.1: 100 μM drug; for Inactivation (V1/2) hNav1.1: steady-state inactivation; for Activation (V1/2) hNav1.1: ≤1% DMSO, oocytes incubated at least one hour; for Effect on hNav1.1 persistent current: end of 50 ms test pulse
T2 construct: host or cells: Xenopus oocytes (cRNA injection)

hNav1.2 = target: T3, hNav1.2 (Homo sapiens, UniProt Q99250); assay: Two-electrode voltage-clamp of hNav1.2 (+β1) in Xenopus oocytes; type: cell-based; conditions: for Effect on hNav1.2 opening/gating, in words: 100 μM, versus DMSO; for Inactivation (V1/2) hNav1.2 / Activation (V1/2) hNav1.2: 100 μM drug; for Inactivation (V1/2) hNav1.2: steady-state inactivation; for Activation (V1/2) hNav1.2: ≤1% DMSO
T3 construct: host or cells: Xenopus oocytes (cRNA injection)

hNav1.3 = target: T4, hNav1.3 (Homo sapiens, UniProt Q9NY46); assay: Two-electrode voltage-clamp of hNav1.3 (+β1) in Xenopus oocytes; type: cell-based; conditions: for Effect on hNav1.3 opening/gating, in words: 100 μM, versus DMSO; for Inactivation (V1/2) hNav1.3 / Activation (V1/2) hNav1.3: 100 μM drug; for Inactivation (V1/2) hNav1.3: steady-state inactivation; for Activation (V1/2) hNav1.3: ≤1% DMSO
T4 construct: host or cells: Xenopus oocytes (cRNA injection)

Nav1.7 = Nav1.7 (Homo sapiens, UniProt Q15858); conditions: reported by other researchers; cited from earlier work
Nav1.7, sequence (Q15858 whole entry): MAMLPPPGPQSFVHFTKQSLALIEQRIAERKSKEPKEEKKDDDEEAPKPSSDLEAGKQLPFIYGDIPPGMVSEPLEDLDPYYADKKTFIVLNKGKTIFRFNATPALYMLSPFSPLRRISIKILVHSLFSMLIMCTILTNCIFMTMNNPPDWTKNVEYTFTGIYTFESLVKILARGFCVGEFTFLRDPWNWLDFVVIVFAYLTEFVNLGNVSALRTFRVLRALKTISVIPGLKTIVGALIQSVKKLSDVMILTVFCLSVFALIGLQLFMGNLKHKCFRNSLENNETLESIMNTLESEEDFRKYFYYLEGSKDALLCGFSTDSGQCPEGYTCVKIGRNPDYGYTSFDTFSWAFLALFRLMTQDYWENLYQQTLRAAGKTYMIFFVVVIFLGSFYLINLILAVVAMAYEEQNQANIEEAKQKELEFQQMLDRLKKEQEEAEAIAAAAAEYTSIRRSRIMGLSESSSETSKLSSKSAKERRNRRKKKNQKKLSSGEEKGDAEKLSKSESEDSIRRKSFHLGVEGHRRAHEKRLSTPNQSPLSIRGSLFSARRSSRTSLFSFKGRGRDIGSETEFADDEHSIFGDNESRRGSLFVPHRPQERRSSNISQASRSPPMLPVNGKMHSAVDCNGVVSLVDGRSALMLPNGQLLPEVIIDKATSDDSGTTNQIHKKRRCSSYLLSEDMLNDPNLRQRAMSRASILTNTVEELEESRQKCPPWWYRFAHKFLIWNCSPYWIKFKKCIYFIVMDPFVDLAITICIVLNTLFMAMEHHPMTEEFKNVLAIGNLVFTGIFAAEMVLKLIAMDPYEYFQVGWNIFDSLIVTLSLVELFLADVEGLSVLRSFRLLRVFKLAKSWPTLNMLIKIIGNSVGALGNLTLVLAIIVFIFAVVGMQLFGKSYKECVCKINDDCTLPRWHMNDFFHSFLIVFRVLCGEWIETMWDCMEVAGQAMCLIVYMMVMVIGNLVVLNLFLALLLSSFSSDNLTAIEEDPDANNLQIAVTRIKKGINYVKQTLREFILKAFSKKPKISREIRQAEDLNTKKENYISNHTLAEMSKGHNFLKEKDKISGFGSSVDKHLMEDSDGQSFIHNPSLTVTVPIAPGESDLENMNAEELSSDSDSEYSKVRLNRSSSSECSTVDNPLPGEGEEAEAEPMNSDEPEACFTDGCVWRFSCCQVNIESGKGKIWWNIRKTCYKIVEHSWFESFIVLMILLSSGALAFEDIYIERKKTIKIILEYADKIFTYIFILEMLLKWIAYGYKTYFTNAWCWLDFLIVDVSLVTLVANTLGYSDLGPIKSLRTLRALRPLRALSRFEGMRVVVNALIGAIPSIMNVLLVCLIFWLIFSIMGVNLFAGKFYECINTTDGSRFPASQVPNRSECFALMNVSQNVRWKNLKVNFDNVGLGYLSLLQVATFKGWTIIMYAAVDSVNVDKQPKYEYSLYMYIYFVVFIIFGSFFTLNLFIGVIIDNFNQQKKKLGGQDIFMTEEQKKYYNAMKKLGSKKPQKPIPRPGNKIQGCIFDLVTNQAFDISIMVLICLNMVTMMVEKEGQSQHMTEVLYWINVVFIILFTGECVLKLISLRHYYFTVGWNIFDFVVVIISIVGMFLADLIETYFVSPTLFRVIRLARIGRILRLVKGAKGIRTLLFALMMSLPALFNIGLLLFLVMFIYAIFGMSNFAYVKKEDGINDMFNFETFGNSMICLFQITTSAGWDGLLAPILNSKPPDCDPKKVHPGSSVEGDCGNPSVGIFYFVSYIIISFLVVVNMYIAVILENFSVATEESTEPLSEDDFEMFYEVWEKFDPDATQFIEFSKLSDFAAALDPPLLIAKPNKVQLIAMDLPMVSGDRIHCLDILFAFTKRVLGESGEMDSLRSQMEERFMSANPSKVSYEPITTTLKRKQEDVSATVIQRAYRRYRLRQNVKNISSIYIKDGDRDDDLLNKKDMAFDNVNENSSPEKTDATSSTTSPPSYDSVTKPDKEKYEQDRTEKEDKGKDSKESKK

α1/β2/γ2 GABAA receptor = target: T5, α1/β2/γ2 GABAA receptor (Homo sapiens, UniProt P14867+P18507+P47870); assay: GABAA receptor activation in oocytes held at −70 mV; type: cell-based
T5 construct: expressed in transfected cells; host or cells: oocytes
T5 sequence (P14867 28-456): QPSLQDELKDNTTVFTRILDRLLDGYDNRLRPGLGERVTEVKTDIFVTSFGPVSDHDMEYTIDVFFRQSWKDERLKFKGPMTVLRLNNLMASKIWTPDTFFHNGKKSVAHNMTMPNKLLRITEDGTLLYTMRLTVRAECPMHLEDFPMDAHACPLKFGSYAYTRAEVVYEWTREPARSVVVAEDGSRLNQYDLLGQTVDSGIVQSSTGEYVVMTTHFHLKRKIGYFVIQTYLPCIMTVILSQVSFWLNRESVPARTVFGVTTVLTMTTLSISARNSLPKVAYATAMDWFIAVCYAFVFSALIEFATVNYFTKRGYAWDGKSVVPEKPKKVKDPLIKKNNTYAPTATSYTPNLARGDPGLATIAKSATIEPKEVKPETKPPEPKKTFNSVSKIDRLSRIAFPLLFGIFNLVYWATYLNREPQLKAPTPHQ
T5 sequence (P47870 25-512 limits assumed): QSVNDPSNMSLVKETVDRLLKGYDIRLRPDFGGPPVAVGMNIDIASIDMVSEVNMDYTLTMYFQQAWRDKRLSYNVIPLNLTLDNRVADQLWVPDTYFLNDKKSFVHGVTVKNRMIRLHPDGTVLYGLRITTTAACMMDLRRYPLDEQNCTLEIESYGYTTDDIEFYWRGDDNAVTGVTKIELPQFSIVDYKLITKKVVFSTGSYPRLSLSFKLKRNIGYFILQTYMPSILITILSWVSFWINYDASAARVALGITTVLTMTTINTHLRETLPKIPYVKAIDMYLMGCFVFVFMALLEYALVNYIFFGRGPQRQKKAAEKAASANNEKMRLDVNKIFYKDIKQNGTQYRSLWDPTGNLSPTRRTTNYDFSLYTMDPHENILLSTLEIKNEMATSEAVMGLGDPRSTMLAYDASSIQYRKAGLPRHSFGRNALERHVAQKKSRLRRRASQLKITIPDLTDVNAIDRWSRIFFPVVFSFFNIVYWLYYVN
T5 sequence (P18507 40-475): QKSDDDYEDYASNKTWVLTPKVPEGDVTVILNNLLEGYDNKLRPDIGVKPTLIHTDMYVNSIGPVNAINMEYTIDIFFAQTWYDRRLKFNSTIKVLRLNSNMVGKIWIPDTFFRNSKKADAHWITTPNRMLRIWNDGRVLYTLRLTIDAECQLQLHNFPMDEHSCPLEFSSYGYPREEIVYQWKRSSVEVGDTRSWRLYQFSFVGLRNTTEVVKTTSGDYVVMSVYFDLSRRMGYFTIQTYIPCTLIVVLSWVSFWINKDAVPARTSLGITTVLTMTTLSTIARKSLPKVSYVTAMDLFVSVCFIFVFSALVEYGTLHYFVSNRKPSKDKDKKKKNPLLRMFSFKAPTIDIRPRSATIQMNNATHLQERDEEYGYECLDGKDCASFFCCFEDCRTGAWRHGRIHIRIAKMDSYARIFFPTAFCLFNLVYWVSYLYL

[1] = system: picrotoxin-induced seizures in male Crl:CF1 mice; assay: Picrotoxin seizure induction; type: in vivo, mouse; conditions: 75 mg/kg ip
Experimental: (§1) Animal husbandry and drug administration. Male Crl:CF1 mice (10-12 weeks old, Charles River) were housed under a 12 hour light-dark cycle with free access to food and water and all experiments were carried out between 10 am and 4 pm. 1-[phenyl-methyl]-1H-1,2,3-triazole-4-carboxamide-5-methyl (Compound B) (Sigma Aldrich) was suspended in a 40% solution of cyclodextrin (Sigma Aldrich) in sterile saline (0.9%) and 15 minutes prior to each seizure induction paradigm, 75 mg/kg of compound B was administered via intraperitoneal injection (ip) injection. Vehicle treated animals were similarly administrated 40% cyclodextrin and served as the controls for each experiment. The Emory University Institutional Animal Care and Use Committee approved all experimental protocols involving mice.
Seizure induction paradigms and analyses. Picrotoxin seizure induction—15 minutes prior to i.p. injection of picrotoxin (10 mg/kg, Sigma Aldrich), mice were administered vehicle or compound B (n=12 per group). Latencies to the first myoclonic jerk, forelimb clonus, and generalized tonic-clonic seizure were compared between compound B and vehicle-treated mice. The myoclonic jerk is characterized by a sudden jerk of the upper body whereas forelimb clonus involves rapid movement of the forelimbs for at least 5 s. Finally, the generalized tonic-clonic seizure involves the loss of postural control with rapid movement of the limbs for at least 5 s.
Statistical analysis. A Student's t-test was used to identify statistically significant differences in latencies between vehicle- and compound B-treated groups for each seizure phenotype following administration of flurothyl and picrotoxin. […] All data are presented as the mean±s.e.m.; p values <0.05 were considered significant.

[2] = system: 6 Hz psychomotor seizures in male Crl:CF1 mice; assay: 6 Hz psychomotor seizure induction; type: in vivo, mouse; conditions: 17 mA
Experimental: as §1
6 Hz psychomotor seizure induction. Topical anesthetic (0.5% tetracaine hydrochloride ophthalmic solution) was applied to the cornea 30 minutes before testing. Fifteen minutes prior to seizure induction, mice were administrated vehicle or compound B (n=12 per group). Each mouse was manually restrained and corneal stimulation (0.2 ms pulse, 6 Hz, 3 s) was performed at a current intensity of 17 mA (ECT Unit 57800; Ugo Basile, Comerio Italy). […]

[3] = system: flurothyl-induced seizures in male Crl:CF1 mice; assay: Flurothyl seizure induction; type: in vivo, mouse; conditions: 75 mg/kg ip, p=0.6
Experimental: as §1
Flurothyl Seizure induction. Latencies to flurothyl-induced seizures were determined as previously described (Neurobiol Dis 49C, 211-220 (2012)). Briefly, flurothyl (2,2,2-trifluroethylether; Sigma Aldrich) was dispensed at a rate of 20 μl/minute into a Plexiglas chamber and latencies to three behavioral phenotypes were compared between vehicle-treated and compound B-treated (75 mg/kg) mice (n=12 per group): 1) the first myoclonic jerk, 2) a generalized tonic-clonic seizure, and 3) a generalized tonic-clonic seizure with tonic extension. […]

Compound | Effect on hNav1.1 opening (G/Gmax), in words (hNav1.1) | Effect on hNav1.2 opening/gating, in words (hNav1.2) | Effect on hNav1.3 opening/gating, in words (hNav1.3) | Effect on hNav1.6 opening/gating, in words (hNav1.6; 100 μM, versus DMSO) | Effect on hNav1.1 steady-state inactivation, in words (hNav1.1) | Inactivation (V1/2) hNav1.1 (hNav1.1) | Activation (V1/2) hNav1.1 (hNav1.1) | Effect on hNav1.1 persistent current (hNav1.1) | other results
COC(=O)c1nnn(Cc2c(F)cccc2F)c1C [Compound L, 1-[(2,6-difluorophenyl)methyl]-1H-1,2,3-triazole-carboxymethyl-5-methyl] | much smaller compared to compound B |  |  |  |  |  |  |  | Shift of hNav1.6 steady-state inactivation / channel availability midpoint (hNav1.6; 100 μM, versus DMSO): ~−20 mV
1-[(2,6-difluorophenyl)methyl]-1H-1,2,3-triazole-carboxymethyl-5-methyl [Compound L] | only slightly inhibits | not significant | not significant |  |  |  |  |  | Effect on hNav1.6 steady-state inactivation, in words (hNav1.6; 100 μM): dramatically affect
NC(=O)c1cn(Cc2c(F)cccc2F)nn1 [Rufinamide, 1-[(2,6-difluorophenyl)methyl]-1H-1,2,3-Triazole-4-carboxamide, reference compound] | dramatic depolarizing shift | not inhibited | not inhibited | not inhibited | not influenced | −47.8 ± 1.6 mV | −30.6 ± 0.9 mV** | do not affect | Inactivation (V1/2) hNav1.2 (hNav1.2): −57.7 ± 0.5 mV; Activation (V1/2) hNav1.2 (hNav1.2): −29.5 ± 1.2 mV; Inactivation (V1/2) hNav1.6 (hNav1.6): −60.0 ± 0.7 mV**; Activation (V1/2) hNav1.6 (hNav1.6): −28.1 ± 0.8 mV; Effect on Nav1.7 inactivated state (Nav1.7): stabilizes the inactivated state; Activation of α1/β2/γ2 GABAA receptor (α1/β2/γ2 GABAA receptor; 100 μM): do not activate; Inactivation (V1/2) hNav1.3 (hNav1.3): −52.6 ± 1.6 mV; Activation (V1/2) hNav1.3 (hNav1.3): −24.5 ± 2.4 mV
OCc1cn(Cc2cccc(F)c2)nn1 [Compound C, 1-[(3-fluorophenyl)methyl]-1H-1,2,3-Triazole-4-hydroxymethyl] | no longer affects |  |  |  |  | −49.2 ± 0.6 mV | −38.4 ± 1.3 mV |  | 
Cc1c(C(N)=O)nnn1Cc1ccccc1 [Compound B, 1-[phenyl-methyl]-1H-1,2,3-Triazole-4-carboxamide-5-methyl] | clearly inhibit | unaltered | unaltered | unaltered | neither of these compounds influences | −49.4 ± 0.3 mV^ | −27.4 ± 1.0 mV** | neither of these compounds influences | Inactivation (V1/2) hNav1.2 (hNav1.2): −53.6 ± 1.2 mV; Activation (V1/2) hNav1.2 (hNav1.2): −23.6 ± 1.1 mV; Inactivation (V1/2) hNav1.6 (hNav1.6): −62.6 ± 0.7 mV; Activation (V1/2) hNav1.6 (hNav1.6): −23.8 ± 1.9 mV; Frequency of behavioral seizures versus vehicle, picrotoxin [1]: no difference; Average latency to forelimb clonus (FC) versus vehicle, picrotoxin ([1]; p=0.3): no statistically significant differences; Average latency to first myoclonic jerk (MJ) versus vehicle, picrotoxin ([1]; p=0.4): no statistically significant differences; Seizure severity (modified Racine scale) versus vehicle, 6 Hz ([2]; 75 mg/kg ip): dramatically less severe; Reduction in the number of mice exhibiting seizures, 6 Hz ([2]; versus vehicle): 63%; Effect on hNav1.1 persistent current (hNav1.1; listed as compound B): do not affect; Depolarizing shift in hNav1.1 channel activation voltage (hNav1.1): ~+11 mV; Average latency to MJ versus vehicle, flurothyl [3]: comparable; Activation of α1/β2/γ2 GABAA receptor (α1/β2/γ2 GABAA receptor; 100 μM): do not activate; Inactivation (V1/2) hNav1.3 (hNav1.3): −50.0 ± 0.8 mV; Activation (V1/2) hNav1.3 (hNav1.3): −25.8 ± 1.4 mV
NC(=O)c1nnn(Cc2ccc(F)cc2)c1N [Compound D, 1-[(4-fluorophenyl)methyl]-1H-1,2,3-Triazole-4-carboxamide-5-amine] | not significant |  |  |  |  | −49.8 ± 1.6 mV | −32.5 ± 2.3 mV |  | 
NC(=O)c1nnn(Cc2cccc(F)c2)c1N [Compound A, 1-[(3-fluorophenyl)methyl]-1H-1,2,3-Triazole-4-carboxamide-5-amine] | clearly inhibit |  |  |  | neither of these compounds influences | −50.5 ± 1.2 mV^ | −30.8 ± 1.0 mV** | neither of these compounds influences | 
CCc1c(C(N)=O)nnn1Cc1ccccc1 [Compound F, 1-(phenylmethyl)-1H-1,2,3-triazole-4-carboxamide-5-ethyl] | inhibits hNav1.1 opening | not significant | not significant | not significant | does not influence |  |  | does not influence | Depolarizing shift in hNav1.1 channel activation voltage (hNav1.1): ~+12 mV
NCc1cc(=O)[nH]o1 [muscimol] |  |  |  |  |  |  |  |  | Activation of α1/β2/γ2 GABAA receptor (α1/β2/γ2 GABAA receptor; 5 μM): activates
